Three compounds from patent US4929620A, “5-pyrimidinyl-3,5-dihydroxy-6-heptenoic acid compounds useful as inhibitors of cholesterol biosynthesis” (Warner-Lambert Company, priority 1989, dated 1990) can be followed below.

This test concerns sterol synthesis. As to the kind of experiment: CSI screen: incorporation of 14C-acetate into nonsaponifiable lipid by rat liver homogenate (inhibition of cholesterol biosynthesis). The settings on record: 50% inhibition of sterol synthesis over a one-hour period, livers of rats fed 5% cholestyramine chow for four days. Format: biochemical. How it is done: The ability of compounds of the present invention to inhibit the biosynthesis of cholesterol was measured by a method (designated CSI screen) which utilizes the procedure described by R. E. Dugan et al, Archiv. Biochem. Biophys., (1972), 152, 21-27. In this method, the level of HMG-CoA enzyme activity in standard laboratory rats is increased by feeding the rats a chow diet containing 5% cholestyramine for four days, after which the rats are sacrificed.
The rat livers are homogenized, and the incorporation of 14C-acetate into nonsaponifiable lipid by the rat liver homogenate is measured. The micromolar concentration of compound required for 50% inhibition of sterol synthesis over a one-hour period is measured, and expressed as an IC50 value.
The activities of several representative examples of compounds in accordance with the present invention appear in Table 1.
`Cc1cc(C)cc(-c2nc(-c3ccccc3)nc(C)c2/C=C/[C@@H]2C[C@@H](O)CC(=O)O2)c1` (relative stereo) [[4α, 6β(E)]-6-[2-[4-(3,5-Dimethylphenyl)-6-methyl-2-phenyl-5-pyrimidinyl]ethenyl]-tetrahydro-4-hydroxy-2H-pyran-2-one] had an IC50 of 220 nM. This lies in the sub-micromolar range.

In the case of `Cc1nc(C)c(/C=C/[C@@H]2C[C@@H](O)CC(=O)O2)c(-c2ccc(F)cc2)n1` (relative stereo) [[4α, 6β(E)]-6-[2-[4-(4-Fluorophenyl)-2,6-dimethyl-5-pyrimidinyl]ethenyl]tetrahydro-4-hydroxy-2H-pyran-2-one], the IC50 is 130 nM.

Turning to `Cc1nc(-c2ccccc2)nc(-c2ccc(F)cc2)c1/C=C/[C@@H]1C[C@@H](O)CC(=O)O1` (relative stereo) [[4α, 6β(E)]-6-[2-[4-(4-Fluorophenyl)-6-methyl-2-phenyl-5-pyrimidinyl]ethenyl]tetrahydro-4-hydroxy-2H-pyran-2-one], the half-inhibitory concentration (IC50) turned out to be 150 nM. The IC50 values of the last two compounds are within 1.5-fold of each other.
